The record followed here is the pKa sets of Baltruschat and Czodrowski (2020).

Broadly, the pKa is the pH at which an ionisable group is half protonated. Higher therefore signals a weaker acid or stronger base. Consider `COc1ccc(C#CC(C)(C)[NH3+])cc1C(=O)c1ccc(Nc2ccc(F)cc2F)cc1`, for which the pKa was 8.1. The figure for `Cc1ncc(-c2ccc(C(F)(F)F)cc2)c(NC2C3CC4CC(C3)CC2C4)n1` (stereo not drawn) is 6; for `CCC1CCCCN1C(=O)c1cnc(Nc2ccc(C)nc2)c(Cl)c1` (stereo not drawn) it is 5.3. As to `CS(=O)(=O)Nn1c(=O)[nH]c2cc(C(F)(F)F)c(N3CCOCC3)cc2c1=O`, the pKa was 8.35.

The compound `Cc1[nH]c2ccccc2c1C1CC[NH+](Cc2ccc(CCC(=O)N=O)cc2)C1` (stereo not drawn) registered a pKa of 8.59. Then `C[C@@H](NC(=O)c1cc(C(=O)N[C@@H](Cc2ccccc2)[C@H](O)C[NH2+]C2CC2)cc(N(C)S(C)(=O)=O)c1)c1ccc(F)cc1`, with 7.7. Take `Cc1nc(N2CCN(CC3CC3)C2=O)sc1C(=O)NCc1cccnc1`: the pKa was determined as 5.

For the compound `Cn1c(=O)n(NS(C)(=O)=O)c(=O)c2ccc(Cl)cc21`, the pKa was found to be 6.8. Turning to `C/C(=C\c1cccc(C)n1)[C@@H]1C[C@@H]2O[C@]2(C)CCC[C@H](C)[C@H](O)[C@@H](C)C(=O)C(C)(C)[C@@H](O)CC(=O)O1`, the pKa was 5.5.

With `O=c1cc(CSc2cccc(F)c2F)nc2cc(-c3ccco3)[nH]n12`, the pKa was 7.5. With `NS(=O)(=O)Oc1ccc2nc(C=C3C4CC5CC(C4)CC3C5)oc2c1`, the pKa came out at 8.26. As for `CNC(=O)c1ccccc1Nc1nc(Nc2ccc(N3CCOCC3)cc2OC)ncc1Cl`, the pKa stood at 4.27.

Regarding `Cc1cccc(C)c1C(=O)N1CCC(C)([NH+]2CCC(N(c3ccccc3)c3ccccc3)CC2)CC1`, the pKa stood at 8.35.

For `O=c1[nH]c2c(Cc3nn[n-]n3)c3ccccc3n2c2ccccc12`, the pKa came to 4.42.

Consider `CN1c2ccc(C#N)cc2N=C(c2ccc(C(=O)[O-])c(F)c2)c2cc3c(cc21)C(C)(C)CCC3(C)C`, for which the pKa was 3.4.

`CC[C@H](C(=O)NO)[C@H](C(=O)N1CCCC[C@H]1C(=O)NC)c1ccc(Cl)cc1` had a pKa of 9.2. For `O=C([O-])c1ccc(-c2ccccc2)cc1`, the pKa was determined as 3.9.

As for `Cc1[nH]c2ccccc2c1CC[NH+]1CCc2cc(CCC(=O)N=O)ccc2C1`, the pKa is 7.96. `CCCCC[C@H](O)CC[C@@H]1[C@H]2Cc3cccc(OCC(=O)[O-])c3C[C@H]2C[C@H]1O` gave a pKa of 3.37. `Cc1ncccc1Oc1ncnc(OC2CCN(C(=O)OC(C)C)CC2)c1C`: the pKa was determined as 4.18. On to `CCN(Cc1ccccc1)c1ccccc1`, for which the pKa came out at 5.8. `Cc1nc(-n2ccc([O-])cc2=O)sc1C(=O)NCc1ccccc1`: the pKa came out at 5.2. `Cn1c(N)nc2ccccc2c1=O` came in with a pKa of 5.2. `COc1ccc(-c2ccc(C(=O)Nc3ccc4c(c3)CCC(C[NH+](C)C)C4)cc2)cc1` (stereo not drawn): the pKa was found to be 9.1. Then `CCc1ccc(-c2cnc(C)nc2NC2CCCC2)cc1`, with 6.8. The figure for `CC(=O)Nc1cccc2c1c(Sc1ccc(Cl)cc1)c(C)n2CC(=O)[O-]` is 2.92; for `CC#CCn1c(N2CC[NH2+]CC2)c(C#N)c2ncn(CC(=O)c3cccc(OC)c3)c(=O)c21` it is 8.2; for `CC(C)(C)[NH2+]C[C@H](O)c1cc(Cl)c(N)c(Cl)c1` it is 9.7. The figure for `Cc1nc[n+]([O-])c(C)c1C(=O)N1CCC(C)([NH+]2CCC(N(c3ccccc3)c3ccccc3)CC2)CC1` is 8.5. Compound `CC(C)n1c(/C=C/[C@H](O)C[C@H](O)CC(=O)[O-])c(-c2ccc(F)cc2)c2ccccc21` had a pKa of 4.5. In turn, `COc1ccc(N2CCc3c(-n4ccc(N5CCNC5=O)n4)cc(C)nc32)c(C)c1` gave a pKa of 6.37. As to `CC(=O)Nc1cc(Cl)ccc1/C=C/C(=O)N1CC[NH+](Cc2ccc(F)cc2)C[C@H]1C`, the pKa stood at 5.9.

In turn, `CC(C)(C)Cn1c(CN2C(=O)CC3(CC[NH2+]CC3)C2=O)cc2cnc(C#N)nc21` displayed a pKa of 9.2.

On to `Cc1nc2ccccn2c1C(=O)NCc1ccc(-c2ccccc2)cc1`, for which the pKa stood at 4.7.

As to `CC1CCCN(C(=O)c2ccc(Nc3ccc(Cl)cc3)nc2)C1` (stereo not drawn), the pKa was 3.4. As for `CN1C(=O)N(C[C@H](C(=O)NO)[C@@H](CC2CCCC2)C(=O)N2CCCCC2)C(=O)C1(C)C`, the pKa turned out to be 9.01. Then `Cc1nc(N2CCN(Cc3ccccc3)C2=O)sc1C(=O)NCc1ccccn1`, with 4.28; and `COc1cc(C(C)=O)ccc1OCCC[NH+]1CCC(c2noc3cc(F)ccc23)CC1`, with 8.2; and `COc1ccc(OC)c(S(=O)(=O)N2CCC(CN3CC[NH+](Cc4ccc(F)cc4)CC3)CC2)c1`, with 7.32. In turn, `C/C(=C\c1ccc(C)cn1)[C@@H]1C[C@@H]2O[C@]2(C)CCC[C@H](C)[C@H](O)[C@@H](C)C(=O)C(C)(C)[C@@H](O)CC(=O)O1` gave a pKa of 4.5.

In turn, `Cc1cc(N2CCCC2)cc(/C=C/c2cccc(C(F)(F)F)c2)[nH+]1` displayed a pKa of 9.43. In turn, `Clc1ccc(OCc2nn[n-]n2)c(C2CCCCC2)c1` gave a pKa of 3.87.

Compound `COc1cc(C(C)O)ccc1OCCC[NH+]1CCC(c2noc3cc(F)ccc23)CC1` (stereo not drawn) came in with a pKa of 8.25.

Regarding `O=C1NC(=O)C(c2c[nH]c3ccccc23)=C1c1nc(N2CCOCC2)nc2ccccc12`, the pKa worked out at 9.3.

`O=C([O-])c1ccc(-c2nc(-c3cccc(C(F)(F)F)c3)cs2)cc1` gave a pKa of 4.1. The figure for `CCN1c2ccc(C#N)cc2N=C(c2ccc(C(=O)[O-])c(F)c2)c2cc3c(cc21)C(C)(C)CCC3(C)C` is 3. Then `COc1ccnc(N2CCC3(CCCN(Cc4c[nH]c5ccccc45)C3=O)CC2)n1`, with 5.28. On to `Cc1ccc(-c2cc(C(F)(F)F)nn2-c2ccc(S(N)(=O)=O)cc2)cc1`, for which the pKa came out at 9.46.

With `C[NH+](CCC(=O)N1CCN(c2ccc(F)c(F)c2)CC1)CCC1c2ccccc2-c2ccccc21`, the pKa is 7.8. Regarding `N#Cc1ncc2cc(COc3ccc(C(=O)[O-])cc3)n(CCC3CCCCC3)c2n1`, the pKa stood at 4.2. Then `CCCCCCCCc1ccc(CCC([NH3+])(CO)CO)cc1`, with 8.52; and `O=c1[nH]c(-c2ccc(C(F)(F)F)cc2)nc2c1CCOC2`, with 7.87. The figure for `CNC(=O)c1c(NCC2CCC3(CCC3)CC2)nc(C#N)nc1OCCC1CC[NH+](C)CC1` is 10.2; for `COc1ccc(CNC(=O)[C@@H](NC(=O)[C@H](Cc2ccc(OC)c(OC)c2)NC(=O)Cc2cccc(Oc3ccccc3)c2)C(C)C)c(O)c1` it is 10.9; for `Cc1c(-c2ccccc2)c(=O)oc2cc(O)ccc12` it is 7.74. On to `C/C(=C\c1ccccn1)[C@@H]1C[C@@H]2O[C@]2(C)CCC[C@H](C)[C@H](O)[C@@H](C)C(=O)C(C)(C)[C@@H](O)CC(=O)O1`, for which the pKa came to 5. Then `Cc1cc(C)nc(N2CCC3(CCCN(Cc4c[nH]c5ccccc45)C3=O)CC2)n1`, with 4.94; and `O=C(NCC[NH+]1CCC(n2c(=O)[nH]c3cc(F)ccc32)CC1)c1ccc(F)cc1`, with 8.77; and `CC(C)(C)OC(=O)N1CCC(C(=O)NS(=O)(=O)c2c(Cl)sc(Cl)c2Br)CC1`, with 2.1. Regarding `CNC(=O)c1c(NCC2CCC3(CCC3)CC2)nc(C#N)nc1OCC1CC[NH+](C)CC1`, the pKa came out at 10.7. The compound `O=C([O-])c1ccc(NC(=O)c2cn(-c3ccccc3)nc2-c2ccc(Cl)cc2)cc1` had a pKa of 4.2. As to `CC/C(=C(\c1ccccc1)c1ccc(/C=C/C(=O)[O-])cc1)c1ccccc1`, the pKa worked out at 4.26. The pKa values of the last two compounds are within 0.2 log units of each other. `CCOc1ccc2nc(S(N)(=O)=O)sc2c1` had a pKa of 8.36. `C[NH+](C)CC1CCc2cc(NC(=O)c3ccc(-c4ccc(F)cc4)cc3)ccc2C1` (stereo not drawn) came in with a pKa of 9.1. With `C=CCNc1ccc2c(c1)c(-c1ccc(C(C)C)cc1)nc(=O)n2C(C)C`, the pKa worked out at 2.9. The figure for `COc1cccc(OC)c1-c1ccc(C[C@H](NC(=O)c2c(Cl)cccc2Cl)C(=O)[O-])cc1` is 3.41; for `Cc1ncc(-c2ccc(C(F)(F)F)cc2)c(NC2CCCCCC2)n1` it is 6; for `Cc1ccc2c(=O)c3cccc(CC(=O)[O-])c3oc2c1C` it is 3.8. The figure for `CNC(=O)c1c(NCC2CCC3(CCC3)CC2)nc(C#N)nc1OC1CC(C)(C)[NH2+]C(C)(C)C1` is 9.2.

`NC1=[NH+]c2ccccc2CC1` showed a pKa of 9.55. Take `CS(=O)(=O)c1ccc(C(=O)Nc2ccc(Cl)c(-c3ccccn3)c2)c(Cl)c1`: the pKa worked out at 3.84. Then `O=C1c2ccccc2-[n+]2ccc3c([nH]c4ccccc43)c21`, with 8.7; and `C[NH+](CCC(=O)N1CCN(c2ccc(F)c(F)c2)CC1)CCC1c2ccccc2Oc2ccccc21`, with 7.9; and `CC(C)(C)c1ccc(S(=O)(=O)Nc2ccc(Cl)cc2C(=O)c2cc[n+]([O-])cc2)cc1`, with 6.87. Then `O=C([O-])COc1ccc(Cl)cc1C1CCCCCC1`, with 3.48; and `CCCCC(=O)N1CCC(CNc2nc3c(s2)CCOc2ccc(F)cc2-3)CC1`, with 3.69; and `CC(=O)N1CCN(c2ccc(OCc3cc4cnc(C#N)nc4n3CCC3CCCCC3)cc2)CC1`, with 3.3. The figure for `CC(C)COC(=O)Nc1ccc(-c2cnc3c(-c4ccc(N5CC[NH+](C)CC5)cc4)cnn3c2N)cc1` is 8.2; for `CC(=C(C#N)C#N)c1ccc2cc(N(C)CCF)ccc2c1` it is 2.4.

With `COc1cc(CN(CC(=O)NCc2ccccc2Cl)S(=O)(=O)c2ccc(CN3CC[NH+](C)CC3)cc2)ccc1OCC(C)C`, the pKa turned out to be 7.17. Take `CN1c2ccc(C#N)cc2N=C(c2ccc(C(=O)[O-])cc2)c2cc3c(cc21)C(C)(C)CCC3(C)C`: the pKa was 3.5. The figure for `CS(=O)(=O)Nn1c(=O)[nH]c2cc(C(F)(F)F)c(N)cc2c1=O` is 8.6. Then `CC(C)[NH+](CCc1c(C(C)(C)O)[nH]c2ccccc12)Cc1ccc(CCC(=O)N=O)cc1`, with 9.01; and `CCOC(=O)c1c(C)cc2nc(COC(=O)NCCO)n(-c3ccccc3S(=O)(=O)NC)c(=O)c2c1C`, with 10.6. The figure for `Brc1ccc(C2CN3C=CSC3=[NH+]2)cc1` (stereo not drawn) is 8.55; for `Cc1ccc(-c2ccc3c(c2)C=C(C(=O)Nc2ccc(C[NH+](C)C4CCOCC4)cc2)CCC3)cc1` it is 8.3. `O=S(=O)(c1ccccc1)N(CC(F)(F)F)c1ccc(C(O)(C(F)(F)F)C(F)(F)F)cc1` had a pKa of 8.2. With `O=NC(=O)CCc1ccc(C[NH2+]CC23CC4CC(CC(C4)C2)C3)cc1`, the pKa turned out to be 8.85.
